Laboratory results published in patent US20150290418A1, “TREATMENT OF RESPIRATORY CONDITION USING TARGETED DELIVERY” (Beth Israel Deaconess Medical Center, Inc., priority 2013, published 2015).

Columns and labels:
Type in all cases: in vivo
airways [1] = experiment: Bronchodilation with targeted versus continuous delivery mode of volatile anesthetics (FIG. 8); settings: targeted vs continuous delivery
From the text: The various delivery modes are at least targeted mode and continuous mode. […] Using the systems and methods described here, volatile anesthetics can be selectively delivered for a specified interval during inspiration.

[2] = Isoflurane traces during targeted and continuous delivery modes (FIG. 9); settings: two breaths
From the text: FIG. 9 are exemplary graphs 900 illustrating isoflurane traces during various delivery modes in relation to the delivered tidal volume for two breaths, according to an example embodiment. As shown in graphs 900, the solid line represents the amount of isoflurane in the lungs and the dotted line represents the tidal volume (Vt) over time.

airways [3] = experiment: Lung measurements for targeted isoflurane delivery during phases of treatment (FIG. 7); settings: following targeted therapy with isoflurane
From the text: Severe sustained bronchospasm may be established using continuous i.v. infusion of methacholine. Using the anesthetic ventilator system, a user has the ability to control the timing, peak concentration, and duration of inhaled isoflurane delivery for various ranges of conventional ventilator rates and tidal volumes typical of ICU patients. In one embodiment, the solenoid valves (shown in FIG. 1) can be programmed to deliver isoflurane during the last 180 cc of the delivered inspired volume. Furthermore, none of the inhaled isoflurane delivered during the last portion of the inspiratory period reaches the alveolar compartment to reduce the risk of side effects and systemic absorption.
FIG. 7 are exemplary graphs 700 illustrating various lung measurements for targeted isoflurane delivery measured during various phases of treatment, according to an example embodiment. As shown in graphs 700, various lung measurements, including lung resistance (RL), lung elastance (EL), and dead space (VD), are measured as described above. […] The estimates of lung resistance and lung elastance may be obtained via multiple linear regression on measured flow and transplumonary pressure waveforms. Anatomic dead space may be estimated using breath-by-breath volume capnography. Capnography is the monitoring of the concentration or partial pressure of carbon dioxide in the respiratory gases. These measurements may be acquired at least under baseline conditions, during bronchoconstriction, after 10-20 minutes of volatile anesthetic treatment, and after maximal bronochodilation with i.v. atrophine. Airway constriction results in increased airway resistance and stiffening of the lung parenchyma, which is often measured with lung resistance and lung elastance. Measuring these parameters help in determining the effectiveness of the targeted delivery treatment.

respiratory system = experiment: Respiratory impedance spectrum (resistance and elastance) during MCh doses and after intravenous atropine
Procedure: By combining specific frequencies such that there is physiologic tidal excursion, in an example embodiment, the EVW is able to maintain gas exchange during conventional ventilation while providing continuous assessment of Z. The EVW differs from other oscillatory waveforms in that it has been modified to allow passive expiration, so Z is calculated from the inspiratory portion of the breath only.
The mechanical impedance spectrum of the lungs or total respiratory system can be very sensitive indicators of bronchoconstriction and response to therapy. Although mathematically Z is a complex number with real and imaginary parts, it can be expressed in terms of effective frequency dependent resistance and elastance. Measurements can be obtained before and 5 minutes following a deep inspiration (DI) to 35 cm H2O, as well as after administration of intravenous atropine. Under pre and post-DI conditions, both respiratory resistance (Rrs) and elastance (Ers) increased at each frequency with increases in MCh dose. At the lowest frequencies, Rrs increased ˜50% during the highest dose of MCh compared with baseline due to increases in both airway and tissue resistances. The Ers increased by ˜65% as the parenchyma stiffens due to airway-tissue interdependence. […] Thus, the impedance spectra reveal subtleties of airway mechanics and response to therapy not evident from simple Rrs and Ers estimates measured at a single breathing frequency. Coupling these types of data to distributed models of airway and tissue mechanics then allows estimates of the heterogeneity of airway or tissue changes in addition to the overall lung properties.

[4] = following intravenous atropine, MCh 200 μg/min
[5] = following intravenous atropine, any frequency

## FC(F)OC(Cl)C(F)(F)F (stereo not shown) [isoflurane]
Airways [1]
  bronchodilation, targeted delivery mode compared with continuous delivery mode: slightly higher
[2]; over time
  levels of isoflurane agent in the lungs, targeted compared with continuous delivery method: lower for most of the time
[2]
  peak level of isoflurane, targeted compared with continuous delivery method: comparable
Airways [3]
  lung elastance (EL): decreasing trend
  lung resistance (RL): decreasing trend
Airways [3]; evidence of bronchodilation
  estimation of dead space (VD): increasing

## FCOC(C(F)(F)F)C(F)(F)F [sevoflurane]
Airways [1]
  bronchodilation, targeted delivery mode compared with continuous delivery mode: slightly higher

## CC(=O)OC(C)C[N+](C)(C)C (stereo not shown) [MCh, methacholine]
Respiratory system; highest dose of MCh
  increase in respiratory elastance (Ers): ~65%
Respiratory system; lowest frequencies, highest dose of MCh (200 μg/min)
  increase in respiratory resistance (Rrs) compared with baseline: ~50%

## CN1[C@@H]2CC[C@H]1C[C@@H](OC(=O)C(CO)c1ccccc1)C2 (stereo partly shown) [atropine]
Respiratory system; [4]
  Ers compared with value at the highest MCh dose: decrease
  Rrs compared with value at the highest MCh dose: decrease
Respiratory system; [5]
  Ers compared with baseline value: no significant difference
  Rrs compared with baseline value: no significant difference
